Laboratory results as given in patent publication US12492181B2, “Gem-disubstituted piperidine melanocortin subtype-2 receptor (MC2R) antagonists and uses thereof” (Crinetics Pharmaceuticals, Inc., priority 2019, dated 2025).

Each compound was assayed against T1, hMC2 receptor (crude hMC2R membranes from CRE-bla-CHO-K1 cells stably expressing hMC2 receptor and hMRAP accessory protein) (Homo sapiens, UniProt Q01718) (assay: hMC2 membrane binding assay ([125I]ACTH (1-39) Tyr23, SPA)). Details: displacement of 0.2 nM [125I]ACTH (1-39) Tyr23 from hMC2R membranes, 1.5 hours at room temperature; read-out: MC2R binding potency.
T1 construct: crude membrane fractions
T1 sequence (Q01718 whole entry): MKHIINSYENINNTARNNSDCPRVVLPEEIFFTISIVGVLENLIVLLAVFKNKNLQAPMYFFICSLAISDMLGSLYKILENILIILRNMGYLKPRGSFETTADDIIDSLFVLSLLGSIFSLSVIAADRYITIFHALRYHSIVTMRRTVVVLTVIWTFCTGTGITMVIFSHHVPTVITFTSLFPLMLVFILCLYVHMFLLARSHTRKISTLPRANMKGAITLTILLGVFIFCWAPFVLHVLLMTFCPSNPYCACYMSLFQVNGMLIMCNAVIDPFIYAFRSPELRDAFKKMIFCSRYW
T1 sequence (Q8TCY5 whole entry partner): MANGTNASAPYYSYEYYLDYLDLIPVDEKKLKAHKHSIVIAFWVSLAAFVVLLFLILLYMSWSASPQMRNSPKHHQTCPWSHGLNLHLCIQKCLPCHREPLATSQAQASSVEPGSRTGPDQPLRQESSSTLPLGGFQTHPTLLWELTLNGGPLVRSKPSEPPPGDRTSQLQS
Procedure, shortened: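 Crude membranes from CRE-bla-CHO-K1 cells stably co-expressing hMC2R and hMRAP, premixed with WGA PVT SPA beads in pH 7.4 HEPES buffer (5 mM MgCl2, 1 mM CaCl2, 0.20% BSA, protease inhibitors). Compounds compete with [125I]ACTH(1-39) Tyr23, read by scintillation. Ki from non-linear regression.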

Ki [nM] | SMILES
< 10 | CCOc1ncccc1-c1ccc(C2(NC(=O)[C@H]3CCN(C)C3)CCN(c3ccc(C(F)(F)F)cc3C#N)CC2)cn1 [Compound 2-9, (3S)—N-{1-[2-cyano-4-(trifluoromethyl)phenyl]-4-{2′-ethoxy-[2,3′-bipyridin]-5-yl}piperidin-4-yl}-1-methylpyrrolidine-3-carboxamide]
< 10 | CCOc1ncccc1-c1ccc(C2(C(=O)N[C@@H]3CCNC3)CCN(c3ccc(C(F)(F)F)cc3C#N)CC2)cn1 [Compound 1-10, 1-[2-cyano-4-(trifluoromethyl)phenyl]-4-{2′-ethoxy-[2,3′-bipyridin]-5-yl}-N-[(3R)-pyrrolidin-3-yl]piperidine-4-carboxamide]
< 10 | CNC[C@H](C)NC(=O)C1(c2ccc(-c3cccnc3OC)nc2)CCN(c2ccc(C(F)(F)F)cc2Cl)CC1 [Compound 1-307, 1-[2-chloro-4-(trifluoromethyl)phenyl]-4-{2′-methoxy-[2,3′-bipyridin]-5-yl}-N-[(2S)-1-(methylamino)propan-2-yl]piperidine-4-carboxamide]
< 10 | CCOc1ncccc1-c1ccc(C2(NC(=O)CCN(C)C)CCN(c3ccc(C(F)(F)F)cc3C#N)CC2)cn1 [Compound 2-10, N-{1-[2-cyano-4-(trifluoromethyl)phenyl]-4-{2′-ethoxy-[2,3′-bipyridin]-5-yl}piperidin-4-yl}-3-(dimethylamino)propanamide]
< 10 | CCOc1ncccc1-c1ccc(C2(C(=O)N[C@H]3CCN(C)C3)CCN(c3ccc(C(C)(F)F)cc3C#N)CC2)cn1 [Compound 1-59, 1-[2-cyano-4-(1,1-difluoroethyl)phenyl]-4-{2′-ethoxy-[2,3′-bipyridin]-5-yl}-N-[(3S)-1-methylpyrrolidin-3-yl]piperidine-4-carboxamide]
< 10 | CCOc1ccccc1-c1ncc(C2(C(=O)N[C@H]3CCN(C)C3)CCN(c3ccc(C(F)(F)F)cc3F)CC2)cc1F [Compound 1-200, 4-[6-(2-ethoxyphenyl)-5-fluoropyridin-3-yl]-1-[2-fluoro-4-(trifluoromethyl)phenyl]-N-[(3S)-1-methylpyrrolidin-3-yl]piperidine-4-carboxamide]
< 10 | CCOc1ncccc1-c1ccc(C2(C(=O)NC3CN(C)CC3O)CCN(c3ccc(C(F)(F)F)cc3C#N)CC2)cn1 (single isomer, unassigned) [Compound 1-41, 1-[2-cyano-4-(trifluoromethyl)phenyl]-4-{2′-ethoxy-[2,3′-bipyridin]-5-yl}-N-[(3S,4S)*-4-hydroxy-1-methylpyrrolidin-3-yl]piperidine-4-carboxamide]
< 10 | CCOc1ccccc1-c1ccc(C2(NC(=O)C3CN(C)C3)CCN(c3ccc(C(F)(F)F)cc3C#N)CC2)cn1 [Compound 2-35, N-{1-[2-cyano-4-(trifluoromethyl)phenyl]-4-[6-(2-ethoxyphenyl)pyridin-3-yl]piperidin-4-yl}-1-methylazetidine-3-carboxamide]
< 10 | Cc1ccc(F)cc1-c1ccc(C2(C(=O)N[C@@H]3CCN(C)C3)CCN(c3ccc(C(F)(F)F)cc3C#N)CC2)cn1 [Compound 1-99, 1-[2-cyano-4-(trifluoromethyl)phenyl]-4-[6-(5-fluoro-2-methylphenyl)pyridin-3-yl]-N-[(3R)-1-methylpyrrolidin-3-yl]piperidine-4-carboxamide]
< 10 | COc1sccc1-c1ccc(C2(C(=O)N[C@@H]3CCN(C)C3)CCN(c3ccc(C(F)(F)F)cc3C#N)CC2)cn1 [Compound 1-83, 1-[2-cyano-4-(trifluoromethyl)phenyl]-4-[6-(2-methoxythiophen-3-yl)pyridin-3-yl]-N-[(3R)-1-methylpyrrolidin-3-yl]piperidine-4-carboxamide]
< 10 | CCOc1ncccc1-c1ncc(C2(C(=O)N[C@@H]3CCN(C)C3)CCN(c3ccc(C(F)(F)F)cc3C#N)CC2)cn1 [Compound 1-107, 1-[2-cyano-4-(trifluoromethyl)phenyl]-4-[2-(2-ethoxypyridin-3-yl)pyrimidin-5-yl]-N-[(3R)-1-methylpyrrolidin-3-yl]piperidine-4-carboxamide]
10 to 100 | CC(C)CCn1nccc1-c1ccc(C2(C(=O)N[C@@H]3CCN(C)C3)CCN(c3ccc(C(F)(F)F)cc3C#N)CC2)cn1 [Compound 1-70, 1-[2-cyano-4-(trifluoromethyl)phenyl]-4-{6-[1-(3-methylbutyl)-1H-pyrazol-5-yl]pyridin-3-yl}-N-[(3R)-1-methylpyrrolidin-3-yl]piperidine-4-carboxamide]
< 10 | C[C@@H](CN(C)C)NC(=O)C1(c2ccc(-c3cccn3C)nc2)CCN(c2ccc(C(F)(F)F)cc2F)CC1 [Compound 1-297, N-[(2S)-1-(dimethylamino)propan-2-yl]-1-[2-fluoro-4-(trifluoromethyl)phenyl]-4-[6-(1-methyl-1H-pyrrol-2-yl)pyridin-3-yl]piperidine-4-carboxamide]
< 10 | CCOc1ncccc1-c1ccc(C2(NC(=O)N[C@H]3CCN(C)C3)CCN(c3ccc(C(F)(F)F)cc3C#N)CC2)cn1 [Compound 2-20, 1-{1-[2-cyano-4-(trifluoromethyl)phenyl]-4-{2′-ethoxy-[2,3′-bipyridin]-5-yl}piperidin-4-yl}-3-[(3S)-1-methylpyrrolidin-3-yl]urea]
10 to 100 | CN1CC[C@@H](NC(=O)C2(c3ccc(-c4ccn(C)c4)nc3)CCN(c3ccc(C(F)(F)F)cc3C#N)CC2)C1 [Compound 1-115, 1-[2-cyano-4-(trifluoromethyl)phenyl]-4-[6-(1-methyl-1H-pyrrol-3-yl)pyridin-3-yl]-N-[(3R)-1-methylpyrrolidin-3-yl]piperidine-4-carboxamide]
< 10 | COc1ccccc1-c1ncc(C2(NC(=O)O[C@H]3CCN(C)C3)CCN(c3ccc(C(F)(F)F)cc3C#N)CC2)cc1F [Compound 2-49, (3S)-1-methylpyrrolidin-3-yl N-{1-[2-cyano-4-(trifluoromethyl)phenyl]-4-[5-fluoro-6-(2-methoxyphenyl)pyridin-3-yl]piperidin-4-yl}carbamate]
< 10 | CCOc1ncccc1-c1ccc(C2(C(=O)N[C@@H](C)CN(C)C)CCN(c3ccc(C(F)(F)F)cc3C#N)CC2)cn1 [Compound 1-313, 1-[2-cyano-4-(trifluoromethyl)phenyl]-N-[(2S)-1-(dimethylamino)propan-2-yl]-4-{2′-ethoxy-[2,3′-bipyridin]-5-yl}piperidine-4-carboxamide]
< 10 | CCOc1ccccc1-c1ccc(C2(C(=O)NC3CN(C)C3)CCN(c3ccc(C(F)(F)F)cc3C#N)CC2)nn1 [Compound 1-136, 1-[2-cyano-4-(trifluoromethyl)phenyl]-4-[6-(2-ethoxyphenyl)pyridazin-3-yl]-N-(1-methylazetidin-3-yl)piperidine-4-carboxamide]
10 to 100 | CCOc1ncccc1-c1ccc(C2(C(=O)NC[C@H](C)N)CCN(c3ccc(C(F)(F)F)cc3C#N)CC2)cc1 [Compound 1-6, N-[(2S)-2-aminopropyl]-1-[2-cyano-4-(trifluoromethyl)phenyl]-4-[4-(2-ethoxypyridin-3-yl)phenyl]piperidine-4-carboxamide]
< 10 | CCOc1ccccc1-c1ncc(C2(C(=O)NCCNC)CCN(c3ccc(C(F)(F)F)cc3F)CC2)cc1F [Compound 1-290, 4-[6-(2-ethoxyphenyl)-5-fluoropyridin-3-yl]-1-[2-fluoro-4-(trifluoromethyl)phenyl]-N-[2-(methylamino)ethyl]piperidine-4-carboxamide]
10 to 100 | CCOc1ncccc1-c1ccc(C2(NC(=O)O[C@H]3CCN(C)C3)CCN(c3ccc(C(F)(F)F)cc3C#N)CC2)cc1 [Compound 2-13, (3S)-1-methylpyrrolidin-3-yl N-{1-[2-cyano-4-(trifluoromethyl)phenyl]-4-[4-(2-ethoxypyridin-3-yl)phenyl]piperidin-4-yl}carbamate]
< 10 | CCOc1ccccc1-c1ccc(C2(C(=O)N[C@H]3CCN(C)C3)CCN(c3ccc(C(F)(F)F)cc3Cl)CC2)cn1 [Compound 1-97, 1-[2-chloro-4-(trifluoromethyl)phenyl]-4-[6-(2-ethoxyphenyl)pyridin-3-yl]-N-[(3S)-1-methylpyrrolidin-3-yl]piperidine-4-carboxamide]
< 10 | CNCCNC(=O)C1(c2ccc(-c3ccccc3OC)nc2)CCN(c2ccc(C(F)(F)F)cc2F)CC1 [Compound 1-256, 1-[2-fluoro-4-(trifluoromethyl)phenyl]-4-[6-(2-methoxyphenyl)pyridin-3-yl]-N-[2-(methylamino)ethyl]piperidine-4-carboxamide]
< 10 | COc1ccccc1-c1ccc(C2(NC(=O)NCCN(C)C)CCN(c3ccc(C(F)(F)F)cc3C#N)CC2)cn1 [Compound 2-58, 1-{1-[2-cyano-4-(trifluoromethyl)phenyl]-4-[6-(2-methoxyphenyl)pyridin-3-yl]piperidin-4-yl}-3-[2-(dimethylamino)ethyl]urea]
< 10 | CNCCC(=O)NC1(c2cnc(-c3ccccc3OC)c(F)c2)CCN(c2ccc(C(F)(F)F)cc2C#N)CC1 [Compound 2-63, N-{1-[2-cyano-4-(trifluoromethyl)phenyl]-4-[5-fluoro-6-(2-methoxyphenyl)pyridin-3-yl]piperidin-4-yl}-3-(methylamino)propanamide]
< 10 | CN1CC(NC(=O)C2(c3ccc(-c4cccn4C)nc3)CCN(c3ccc(C(F)(F)F)cc3C#N)CC2)C1 [Compound 1-219, 1-[2-cyano-4-(trifluoromethyl)phenyl]-4-[6-(1-methyl-1H-pyrrol-2-yl)pyridin-3-yl]-N-(1-methylazetidin-3-yl)piperidine-4-carboxamide]
< 10 | Cc1cscc1-c1ccc(C2(C(=O)N[C@@H]3CCN(C)C3)CCN(c3ccc(C(F)(F)F)cc3C#N)CC2)cn1 [Compound 1-138, 1-[2-cyano-4-(trifluoromethyl)phenyl]-N-[(3R)-1-methylpyrrolidin-3-yl]-4-[6-(4-methylthiophen-3-yl)pyridin-3-yl]piperidine-4-carboxamide]
